Assays:
[1] = test system: barnyardgrass; test: Test A preemergence; assay type: in vivo, Echinochloa crus-galli; conditions: for Barnyardgrass plant response rating: 500 g ai/ha
Method in brief: (§1)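 Compounds in non-phytotoxic solvent with surfactant applied as soil spray preemergence, or postemergence to plants 2-10 cm at one- to two-leaf stage, in loam/sand. After approximately 10 days in greenhouse, injury rated visually versus untreated controls, 0 (no effect) to 100 (complete control).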

[2] = test system: large (Lg) crabgrass; test: Test A preemergence; assay type: in vivo, Digitaria sanguinalis; conditions: for Crabgrass, Large plant response rating: 500 g ai/ha
Method in brief: as §1

[3] = test system: giant foxtail; test: Test A preemergence; assay type: in vivo, Setaria faberii
Method in brief: as §1

[4] = test system: morningglory; test: Test A preemergence; assay type: in vivo, Ipomoea spp.
Method in brief: as §1

[5] = test system: pigweed; test: Test A preemergence; assay type: in vivo, Amaranthus retroflexus
Method in brief: as §1

[6] = test system: velvetleaf; test: Test A preemergence; assay type: in vivo, Abutilon theophrasti
Method in brief: as §1

[7] = test system: wheat; test: Test A preemergence; assay type: in vivo, Triticum aestivum
Method in brief: as §1

[8] = test system: corn; test: Test A preemergence; assay type: in vivo, Zea mays; conditions: for Corn plant response rating: 500 g ai/ha
Method in brief: as §1

[9] = test system: barnyardgrass; test: Test A postemergence; assay type: in vivo, Echinochloa crus-galli
Method in brief: as §1

[10] = test system: large (Lg) crabgrass; test: Test A postemergence; assay type: in vivo, Digitaria sanguinalis
Method in brief: as §1

[11] = test system: giant foxtail; test: Test A postemergence; assay type: in vivo, Setaria faberii
Method in brief: as §1

[12] = test system: morningglory; test: Test A postemergence; assay type: in vivo, Ipomoea spp.
Method in brief: as §1

[13] = test system: pigweed; test: Test A postemergence; assay type: in vivo, Amaranthus retroflexus
Method in brief: as §1

[14] = test system: velvetleaf; test: Test A postemergence; assay type: in vivo, Abutilon theophrasti
Method in brief: as §1

[15] = test system: wheat; test: Test A postemergence; assay type: in vivo, Triticum aestivum
Method in brief: as §1

[16] = test system: corn; test: Test A postemergence; assay type: in vivo, Zea mays
Method in brief: as §1

[17] = test system: rice; test: Test B flooded paddy test; assay type: in vivo, Oryza sativa; conditions: Flood, 250 g ai/ha; 0 to 100 scale where 0 is no effect and 100 is complete control
Method in brief: (§2)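 Visual ratings on a 0 to 100 scale, where 100 means complete control, compared treated plants with controls after 13 to 15 days in a greenhouse. Treatment went into paddy water 3 cm deep over the soil, applied to plants at the 2-leaf stage.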

[18] = test system: sedge, umbrella; test: Test B flooded paddy test; assay type: in vivo, Cyperus difformis; conditions: Flood, 250 g ai/ha; 0 to 100 scale where 0 is no effect and 100 is complete control
Method in brief: as §2

[19] = test system: Heteranthera limosa; test: Test B flooded paddy test; assay type: in vivo; conditions: Flood, 250 g ai/ha; 0 to 100 scale where 0 is no effect and 100 is complete control
Method in brief: as §2

[20] = test system: barnyardgrass; test: Test B flooded paddy test; assay type: in vivo, Echinochloa crus-galli; conditions: Flood, 250 g ai/ha; 0 to 100 scale where 0 is no effect and 100 is complete control
Method in brief: as §2

[21] = 125 g ai/ha, 0 to 100 scale where 0 is no effect and 100 is complete control
[22] = 0 to 100 scale where 0 is no effect and 100 is complete control
[23] = 500 g ai/ha, 0 to 100 scale where 0 is no effect and 100 is complete control
[24] = 0 to 100 scale, 0 no effect, 100 complete control, approx. 10 days
[25] = 500 g ai/ha, 0 to 100 scale, 0 no effect, 100 complete control, approx. 10 days
[26] = 500 g ai/ha, 0 to 100 scale, 0 no effect, 100 complete control
[27] = 1000 g ai/ha, 0 to 100 scale, 0 no effect, 100 complete control
[28] = 1000 g ai/ha, 0 to 100 scale, 0 no effect, 100 complete control, approx. 10 days

N#Cc1cccc(Oc2ncc(Br)cn2)c1-n1cccn1 [Compound 165]
60: Pigweed plant response rating (0 to 100 scale) ([5]; 125 g ai/ha)
0: Plant response rating, Barnyardgrass [1, 21] | Morningglory plant response rating (0 to 100 scale) ([4]; 125 g ai/ha) | Wheat plant response rating (0 to 100 scale) ([7]; 125 g ai/ha) | Wheat plant response rating [7, 23] | Plant response rating, Corn [8, 21] | Corn plant response rating [8, 22] | Barnyardgrass plant response rating [9, 21] | Plant response rating, Barnyardgrass [9, 23] | Crabgrass, Large plant response rating [10, 21] | Wheat plant response rating [15, 21] | Plant response rating, Wheat [15, 23] | Corn plant response rating [16, 21] | Plant response rating, Corn [16, 23] | Plant response rating, Rice [17] | Plant response rating, Sedge, Umbrella [18] | Plant response rating, Ducksalad [19] | Plant response rating, Barnyardgrass [20]
90: Crabgrass, Large plant response rating [2, 22] | Foxtail, Giant plant response rating [3, 23] | Pigweed plant response rating [5, 23]
80: Plant response rating, Pigweed [13, 23]
20: Barnyardgrass plant response rating [1, 22] | Plant response rating, Foxtail, Giant [3, 21] | Velvetleaf plant response rating [6, 23] | Plant response rating, Foxtail, Giant [11, 23] | Plant response rating, Morningglory [12, 23]
50: Plant response rating, Crabgrass, Large [2, 21]
30: Pigweed plant response rating [13, 21] | Plant response rating, Velvetleaf [14, 23]
10: Velvetleaf plant response rating (0 to 100 scale) ([6]; 125 g ai/ha) | Plant response rating, Crabgrass, Large [10, 23] | Foxtail, Giant plant response rating [11, 21] | Morningglory plant response rating [12, 21] | Velvetleaf plant response rating [14, 21]

Cc1cnn(-c2ccccc2Oc2ncc(Cl)cn2)c1 [Compound 23]
60: Plant response rating, Crabgrass, Large [10, 26] | Plant response rating, Corn [16, 26]
35: Plant response rating, Rice [17]
50: Barnyardgrass plant response rating [1, 24] | Plant response rating, Morningglory [12, 21]
0: Plant response rating, Morningglory [4, 21] | Morningglory plant response rating [4, 25] | Plant response rating, Wheat [7, 21] | Wheat plant response rating [7, 25] | Plant response rating, Corn [8, 21] | Plant response rating, Barnyardgrass [9, 21] | Plant response rating, Wheat [15, 21] | Plant response rating, Corn [16, 21]
80: Plant response rating, Velvetleaf [14, 21] | Plant response rating, Ducksalad [19]
70: Plant response rating, Foxtail, Giant [3, 21] | Plant response rating, Sedge, Umbrella [18]
40: Plant response rating, Barnyardgrass [9, 26] | Plant response rating, Foxtail, Giant [11, 21]
20: Plant response rating, Barnyardgrass [1, 21] | Corn plant response rating [8, 24] | Plant response rating, Crabgrass, Large [10, 21] | Plant response rating, Wheat [15, 26] | Plant response rating, Barnyardgrass [20]
100: Plant response rating, Pigweed [5, 21] | Pigweed plant response rating [5, 25] | Plant response rating, Pigweed [13, 26] | Plant response rating, Velvetleaf [14, 26]
90: Plant response rating, Crabgrass, Large [2, 21] | Crabgrass, Large plant response rating [2, 24] | Foxtail, Giant plant response rating [3, 25] | Plant response rating, Velvetleaf [6, 21] | Velvetleaf plant response rating [6, 25] | Plant response rating, Foxtail, Giant [11, 26] | Plant response rating, Morningglory [12, 26] | Plant response rating, Pigweed [13, 21]

Fc1ccc(Oc2ncc(Cl)cn2)c(-n2cc(Br)cn2)c1 [Compound 53]
90: Plant response rating, Barnyardgrass [9, 27]
70: Plant response rating, Crabgrass, Large [10, 27]
30: Plant response rating, Wheat [15, 27] | Plant response rating, Corn [16, 27]
60: Morningglory plant response rating [4, 28]
10: Plant response rating, Corn [8, 27]
0: Wheat plant response rating [7, 28] | Plant response rating, Rice [17] | Plant response rating, Sedge, Umbrella [18] | Plant response rating, Barnyardgrass [20]
75: Plant response rating, Ducksalad [19]
100: Plant response rating, Barnyardgrass [1, 27] | Plant response rating, Crabgrass, Large [2, 27] | Foxtail, Giant plant response rating [3, 28] | Pigweed plant response rating [5, 28] | Velvetleaf plant response rating [6, 28] | Plant response rating, Morningglory [12, 27] | Plant response rating, Pigweed [13, 27] | Plant response rating, Velvetleaf [14, 27]
80: Plant response rating, Foxtail, Giant [11, 27]

FC(F)(F)c1cnn(-c2c(Cl)cccc2Oc2ncc(Br)cn2)c1 [Compound 168]
100: Plant response rating, Crabgrass, Large [2, 21] | Crabgrass, Large plant response rating [2, 22] | Plant response rating, Foxtail, Giant [3, 21] | Foxtail, Giant plant response rating [3, 23] | Pigweed plant response rating (0 to 100 scale) ([5]; 125 g ai/ha) | Pigweed plant response rating [5, 23] | Plant response rating, Morningglory [12, 23] | Pigweed plant response rating [13, 21] | Plant response rating, Pigweed [13, 23] | Plant response rating, Velvetleaf [14, 23]
0: Plant response rating, Corn [8, 21] | Plant response rating, Barnyardgrass [20]
70: Velvetleaf plant response rating (0 to 100 scale) ([6]; 125 g ai/ha) | Crabgrass, Large plant response rating [10, 21] | Foxtail, Giant plant response rating [11, 21]
10: Wheat plant response rating [15, 21]
50: Plant response rating, Barnyardgrass [1, 21] | Barnyardgrass plant response rating [9, 21] | Morningglory plant response rating [12, 21] | Plant response rating, Wheat [15, 23]
80: Barnyardgrass plant response rating [1, 22] | Morningglory plant response rating [4, 23] | Plant response rating, Sedge, Umbrella [18]
90: Velvetleaf plant response rating [6, 23] | Plant response rating, Barnyardgrass [9, 23] | Plant response rating, Crabgrass, Large [10, 23] | Plant response rating, Foxtail, Giant [11, 23] | Velvetleaf plant response rating [14, 21] | Plant response rating, Ducksalad [19]
20: Morningglory plant response rating (0 to 100 scale) ([4]; 125 g ai/ha) | Wheat plant response rating (0 to 100 scale) ([7]; 125 g ai/ha) | Wheat plant response rating [7, 23] | Corn plant response rating [8, 22] | Corn plant response rating [16, 21]
30: Plant response rating, Corn [16, 23] | Plant response rating, Rice [17]

C=C(C)c1cccc(Oc2ncc(Cl)cn2)c1-n1cc(Br)cn1 [Compound 198]
80: Barnyardgrass plant response rating [1, 22] | Crabgrass, Large plant response rating (0 to 100 scale) ([2]; 125 g ai/ha) | Velvetleaf plant response rating [6, 23] | Plant response rating, Foxtail, Giant [11, 23]
100: Crabgrass, Large plant response rating [2, 22] | Foxtail, Giant plant response rating [3, 23] | Pigweed plant response rating (0 to 100 scale) ([5]; 125 g ai/ha) | Pigweed plant response rating [5, 23] | Plant response rating, Pigweed [13, 23] | Plant response rating, Velvetleaf [14, 23]
25: Plant response rating, Ducksalad [19]
40: Velvetleaf plant response rating (0 to 100 scale) ([6]; 125 g ai/ha)
0: Morningglory plant response rating (0 to 100 scale) ([4]; 125 g ai/ha) | Wheat plant response rating (0 to 100 scale) ([7]; 125 g ai/ha) | Wheat plant response rating [7, 23] | Corn plant response rating (0 to 100 scale) ([8]; 125 g ai/ha) | Corn plant response rating [8, 22] | Wheat plant response rating [15, 21] | Plant response rating, Rice [17] | Plant response rating, Barnyardgrass [20]
60: Crabgrass, Large plant response rating [10, 21] | Morningglory plant response rating [12, 21]
90: Plant response rating, Crabgrass, Large [10, 23] | Pigweed plant response rating [13, 21] | Velvetleaf plant response rating [14, 21]
20: Corn plant response rating [16, 21] | Plant response rating, Corn [16, 23] | Plant response rating, Sedge, Umbrella [18]
10: Morningglory plant response rating [4, 23] | Plant response rating, Wheat [15, 23]
30: Barnyardgrass plant response rating [9, 21] | Foxtail, Giant plant response rating [11, 21]
70: Foxtail, Giant plant response rating (0 to 100 scale) ([3]; 125 g ai/ha) | Plant response rating, Morningglory [12, 23]
50: Barnyardgrass plant response rating (0 to 100 scale, 0 is no effect, 100 is complete control) ([1]; 125 g ai/ha) | Plant response rating, Barnyardgrass [9, 23]
